Residue numbers refer to the chain shown, from its start. Where two headings read alike, the source gives them in different places.
What was measured:
GCase = target: T1, GCase (Homo sapiens, UniProt P04062); assay: GCase activity in cultured healthy human fibroblasts; type: cell-based; conditions: 5 days culture
T1 construct: endogenous in cells; host or cells: normal human skin fibroblasts
T1 sequence (P04062 40-536): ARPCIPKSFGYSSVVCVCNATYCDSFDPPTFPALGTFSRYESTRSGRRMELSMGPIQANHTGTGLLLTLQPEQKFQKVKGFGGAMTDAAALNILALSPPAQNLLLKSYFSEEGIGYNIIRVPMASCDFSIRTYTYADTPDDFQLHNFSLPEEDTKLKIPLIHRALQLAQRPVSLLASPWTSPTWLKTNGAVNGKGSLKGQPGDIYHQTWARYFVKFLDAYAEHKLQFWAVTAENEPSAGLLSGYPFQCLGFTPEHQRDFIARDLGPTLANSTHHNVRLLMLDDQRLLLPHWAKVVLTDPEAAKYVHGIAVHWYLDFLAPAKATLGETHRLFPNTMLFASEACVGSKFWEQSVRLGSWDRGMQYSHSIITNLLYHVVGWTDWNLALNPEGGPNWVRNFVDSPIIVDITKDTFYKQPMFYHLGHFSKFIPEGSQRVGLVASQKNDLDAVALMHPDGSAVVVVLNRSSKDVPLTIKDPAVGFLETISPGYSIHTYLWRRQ
Description: For that purpose, cells were cultured for 5 days in the absence and in the presence of various concentrations of the compounds, then lysed, and the enzyme activity was determined using 4-methylumbelliferyl β-D-glucopyranoside as substrate. Higher GCase activities in the lysate indicate that larger amounts of the protein are present and that it is functional.
(§1) Normal and Gaucher disease patients’ skin fibroblasts were cultured in Dulbecco modified Eagle’s medium (WAKO, Richmond, VA, USA) supplemented with 10% fetal bovine serum (Nichirei Biosci. Inc., Tokyo, Japan) at 37 °C in 5% CO2. For measurement of chaperone activities, fibroblasts were plated onto 35 mm dishes at 50,000 cells per dish. After 24 h incubation, the medium with the indicated concentrations of compound was applied and cells were cultured for 96 h. Then, the lysates in 0.1% Triton-X100/distilled H2O were collected from the cells and assayed for lysosomal GCase as described above. To measure the cytotoxic effect of the compounds, normal human fibroblasts were plated onto 35 mm dishes at 15,000 cells per dish and incubated overnight. Then, the medium was changed with or without compounds. After 24 h incubation, the supernatant of the cells was collected and measured by the lactate dehydrogenase assay (WAKO, Richmond, VA, USA). All the cell lines used were tested for mycoplasma contamination before conducting the chaperone and toxicity assays.

pKa determination = type: physicochemical
N188S/G183W mutant GCase = target: T2, N188S/G183W mutant GCase (Homo sapiens, UniProt P04062, N227S); assay: Chaperone test in N188S/G183W type 3 Gaucher patient fibroblasts; type: cell-based; conditions: N188S/G183W Gaucher fibroblasts
T2 construct: endogenous in cells; host or cells: skin fibroblasts of N188S/G183W type 3 Gaucher patients
T2 sequence (P04062 40-536 N227S): T1 sequence (P04062 40-536) with N188S
From the text: To test the chaperoning capabilities, Gaucher fibroblasts from patients hosting the adult neuronopathic (type 3) Gaucher disease-associated N188S/G183W mutant GCase were employed. It is worth mentioning that the neuronopathic clinical subtypes of Gaucher disease remain currently at orphan status, given the inability of the recombinant enzyme used in enzyme replacement therapy or the glucosylceramide synthase inhibitor Zavesca® used in substrate reduction therapy to cross the blood–brain barrier. This mutation is located in the catalytic domain (domain III) of GCase and has been previously found to be responsive to sp^2-iminosugar-type chaperones. […] Yet, the activity trend as a function of the chaperone concentration was starkly different between them. Thus, the nonreducing representatives 3 and 4 reached the maximum chaperoning effect at 200 nM and as low as 2 nM concentration, respectively, as compared with 20 and 2 μM for the reducing homologues 1 and 2.
as §1

[1] = target: T3, human β-glucocerebrosidase (GCase) (Homo sapiens, UniProt P04062, R534H); assay: Purified recombinant human GCase inhibition in vitro; type: biochemical; conditions: for Ki: purified recombinant enzyme (Cerezyme), 4-MU glucopyranoside substrate
T3 construct: purchased Genzyme (Genzyme Japan, Tokyo, Japan) / Sanofi Genzyme, Cambridge, MA, USA Cerezyme
T3 sequence (P04062 40-536 R534H): T1 sequence (P04062 40-536) with R495H
Description: Comparative assessment of the inhibition abilities of 1–4 against human lysosomal glycosidases in cell lysates (in vitro enzyme assay; see Experimental Section) confirmed the selectivity pattern previously observed for the commercial enzymes: whereas GCase was responsive to μM concentrations of the sp^2-iminosugars, the activity of lysosomal α-glucosidase, α- and β-galactosidases, α- and β-mannosidases, and hexosaminidase was not affected at concentrations of up to 200 μM. The corresponding Ki values were determined at pH 7 and 5 using purified recombinant human GCase and 4-methylumbelliferone (4-MU)-conjugated […] as the substrate (Table 2).
GCase activities were determined as above using purified human GCase, obtained from Genzyme (Genzyme Japan, Tokyo, Japan) in 0.1 M citrate buffer at pH 5 or pH 7 and 4-methylumbelliferone (4-MU)-conjugated β-D-glucopyranoside as the substrate. The reactions were terminated by adding 0.2 mL of 0.2 M glycine sodium hydroxide buffer (pH 10.7). The liberated 4-methylumbelliferone was measured in a black-well plate with a Perkin Elmer Luminescence Spectrometer, Waltham, MA, USA (excitation wavelength: 340 nm; emission: 460 nm).

L444P mutant GCase [2] = tested on: L444P mutant GCase; design: method as in PMID 22512696; conditions: homozygous L444P Gaucher lymphoblasts; cited from earlier work
L444P mutant GCase [3] = conditions: homozygous L444P Gaucher fibroblasts; cited from earlier work
[4] = pH 5, read-out: Ki human GCase, pH 5
[5] = pH 7, read-out: Ki human GCase, pH 7

| SMILES | GCase activity in healthy human fibroblasts over the whole range of concentrations (GCase) | pKa (pKa determination) | concentration of maximum chaperoning effect (N188S/G183W mutant GCase) [µM] | Ki [1, 4] [µM] | Ki [1, 5] [µM] | further results |
| --- | --- | --- | --- | --- | --- | --- |
| CCCCCCCCN=C1OCC2C(O)C(O)C(O)C(O)N12 (stereo not shown) [Compound 1] | essentially unaltered | 8.9 | 20 | 54.4 ± 0.38 | 15.1 ± 0.97 | – |
| CCCCCCCCN=C1SCC2C(O)C(O)C(O)C(O)N12 (stereo not shown) [Compound 2] | essentially unaltered | 8.3 | 2 | 1.05 ± 0.068 | 0.26 ± 0.013 | fold enhancement of GCase inhibition potency upon replacement of O-6 by sulfur, pH 5 ([1]; pH 5, 2 vs 1, 4 vs 3): 52 fold; fold enhancement of GCase inhibition potency upon replacement of O-6 by sulfur, pH 7 ([1]; pH 7, 2 vs 1, 4 vs 3): 58 fold |
| CCCCCCCC/N=C1/OC[C@@H]2[C@@H](O)[C@H](O)[C@@H](O)CN12 [Compound 3] | – | 9.3 | 0.2 | 6.3 ± 0.16 | 1.7 ± 0.066 | GCase activity in lysates of healthy human fibroblasts at 20 μM (GCase; 20 μM): virtually full inhibition; GCase activity in lysates of healthy human fibroblasts at higher concentrations (GCase; concentrations higher than 20 nM): significantly inhibited; concentration over which chaperone/inhibitor balance is unfavorable (net decrease in mutant enzyme activity vs control) (N188S/G183W mutant GCase): over 20 μM; fold stronger GCase inhibition of nonreducing vs reducing partner ([1]; 3 vs 1, 4 vs 2): about 10 fold |
| CCCCCCCCCN[C@H]1[C@H](O)[C@@H](O)[C@H](O)[C@@H](O)[C@@H]1OCCCCCCCCC [Compound 19, (1R,2S,3R,4S,5S,6R)-5-(nonylamino)-6-(nonyloxy)cyclohexane-1,2,3,4-tetraol] | – | – | – | – | – | mutant GCase activity enhancement at 10 pM (L444P mutant GCase [2]): 40% |
| CCCCCCCCCC(=O)OC[C@H](C[C@H]1NC[C@@H](O)[C@H](O)[C@H]1O)OC(=O)CCCCCCCCC [Compound 23] | – | – | – | – | – | mutant GCase activity enhancement at 50 nM (L444P mutant GCase [3]): 100% |
